Results reported in patent US20120088688A1, “IN VITRO ASSAY FOR IDENTIFICATION OF ALLERGENIC PROTEINS” (BIOVATOR TECHNOLOGIES AB, priority 2005, published 2012).
Where a name gives a salt, the structure may show the parent alone.

System: Mono Mac 6 cells
Test: Micro array gene expression profiling (HG_U95Av2 chip) of Mono Mac 6 cells following allergen treatment
Assay type: cell-based, human
Conditions: for Number of up regulated genes: Mono Mac 6 cells
Experimental: The cell line Mono Mac 6 (AstraZeneca Cell Storage and Retrieval, Alderley Park, UK) was cultivated in RPMI 1640 medium with 10 mM HEPES buffer (Gibco, UK), 2 mM L-glutamine, 9 μg/mL human insulin, 1.0 mM sodium pyruvate, 10% fetal bovine serum, 5.6 μl/mL glucose, 100 U/mL penicillin and 100 μg/ml streptomycin. Fresh medium for cultivation was added or changed frequently (every 2:nd or 3:rd day), maintaining a cell density of viable cells/mL between 0.5×10^6 and 1.0×10^6. The cell line was in suspension/loosely adherent and sub cultures were prepared when needed by scraping. The plates were cultivated in an inclined position at 37° C. and 5% CO2 in a Galaxy R (Lab Rum Klimat Ab, Sweden) incubator
Cells were treated with four different allergens, according to table 2, in duplicate cultures. The test substances were all diluted in double distilled water. The duplicate cultures were treated at different exposure days. All treatments were 6 hours and control cells were left unexposed.
20 individual cultures with 500 000 cells per culture were treated identical for each substance. After 6 h exposure identical treated cells were harvest and pooled into a 50 ml Falcontube, pelleted at 540 g for 5 minutes in 7° C. […] The supernatant was removed and the cells were freeze-dried with liquid nitrogen and thereafter put into −152° C. freezer until further preparation.
Experimental procedures were performed according to Gene Chip®Expression Analysis Technical Manual (rev1, 2001) with minor modifications as described. Total RNA was prepared from frozen cells, according to Qiagen Rneasy Mini kit (Qiagen/WVR, Sweden). 30 μg of total RNA was used for cDNA synthesis and in vitro transcript labeling with biotin was performed according to Enzo BioArray RNA Transcription Labeling Kit (Enzo, U.S.A). cRNA quality was analyzed on a Agilent Bioanalyser 2001 (Agilent Technologies, U.S.A) and the concentration was measured on a Nano Droop (Saveen Werner, Sweden). 15 μg of fragmented cRNA was added to the hybridization-cocktail and hybridized to the HG_U95Av2 chip (Affymetrix, U.S.A) for 16 h at 45° C. The arrays were washed and stained with biotinylated anti streptavidin antibodies according to the EukGE_W2v4 protocol (Affymetrix, U.S.A) in the fluid station (Affymetrix, U.S.A).
Data obtained were analyzed using the MAS 5.0 model base. A detection call was calculated for all probe sets, representing if the transcript of a particular gene was present or absent, all absent genes were excluded from analysis.
To verify outliers and trends in data exploratory analysis was made with principle component analysis (PCA). Statistic analysis was made using student's t-test. It weights the variance in individual groups with the variance in all groups. Student's t-test was used to test for statistical significance compared with control. The p-value obtained describes the probability of statistically finding a false positive probe set. Fold change (fc) represents the quotient between the two compared chip.
The average signal value from all treated groups were compared with control signals.
All probe sets with signal value<50 in all groups were excluded from analysis. […] The remaining probe sets were ranked after fc.

In the case of CC1(C)S[C@@H]2[C@H](NC(=O)Cc3ccccc3)C(=O)N2[C@H]1C(=O)O [penicillin G, Benzylpenicillin sodium salt], the “Number of up regulated genes” value (cut off fc >2) is reported as 4, the “Number of up regulated genes” value (cut off fc >4) is reported as 1 and the “Number of up regulated genes” value (cut off fc >6) is reported as 0. The “Number of up regulated genes” value (cut off fc >10) was 0, the “vs ctrl fc, GPR15” value (gene GPR15) was 2.2 and the “vs ctrl fc, IFITM3” value (gene IFITM3) was 3.3. The “vs ctrl fc, XK” value (gene XK) was 2.6 and the “vs ctrl fc, c 33.28 unnamed HERV-H protein mRNA” value (systematic name none, c 33.28 unnamed HERV-H protein mRNA) was 9.1.
